“And” between values parts separate entries of the source, which are not always exact repeats. Equal values may be shown once. After the bases stand the sugars from the 5' end (letter, count) and the backbone: PS all phosphorothioate, else s phosphorothioate and o phosphodiester by linkage. Methylation of C is not given here. e = 2'-O-(2-methoxyethyl) (MOE); k = constrained ethyl (cEt); d = 2'-deoxy (DNA)
Molecular target: IRF4
Settings: ASO

Sequence	target mRNA inhibition (SK-MEL-28, 4 µM)	target mRNA inhibition (MM.1R, 1 µM)	further results
CGCACTAAGTGGGCTC (sugars k3 d10 k3, PS)	14%	–	–
CGCACTCCGGGCACCC (sugars k3 d10 k3, PS)	–	11%	–
CGCATAGAGCCCGTCG (sugars k3 d10 k3, PS)	53%	–	–
CGCATAGGTCCTTCAG (sugars k3 d10 k3, PS)	–	6%	–
CGCCAGCCAGATGTTT (sugars k3 d10 k3, PS)	–	-15%	–
CGCCATGGCTGATCGC (sugars k3 d10 k3, PS)	53%	–	–
CGCCCAATCACCTTCC (sugars k3 d10 k3, PS)	–	-19%	–
CGCCGGACCCCGGAGC (sugars k3 d10 k3, PS)	9%	–	–
CGCCGGAGGCCGCCGT (sugars k3 d10 k3, PS)	3%	–	–
CGCGGACGCACGGAGA (sugars k3 d10 k3, PS)	19%	–	–
CGCGGAGGACCTCGCC (sugars k3 d10 k3, PS)	–	-7%	–
CGCTCATGCCGAACTC (sugars k3 d10 k3, PS)	11%	–	–
CGCTGAATTGTCATGA (sugars k3 d10 k3, PS)	–	-1%	–
CGCTGGACAGCCAAAC (sugars k3 d10 k3, PS)	41%	–	–
CGCTTTCACTAAAGTC (sugars k3 d10 k3, PS)	71%	–	–
CGGACGAACGCGCAAA (sugars k3 d10 k3, PS)	39%	–	–
CGGAGGTTCCTTGAGG (sugars k3 d10 k3, PS)	–	42% and 52%	target mRNA inhibition (H929, 0.04 µM): 5% and 10%; target mRNA inhibition (KMS11, 0.2 µM): 28% and 21%; target mRNA inhibition (MM.1R, 0.0625 µM): 6%; target mRNA inhibition (MM.1R, 0.25 µM): 29%; target mRNA inhibition (MM.1R, 4 µM): 64%
CGGCAGACGGGAGCCC (sugars k3 d10 k3, PS)	12%	–	–
CGGCTCCTCCTCCTTT (sugars k3 d10 k3, PS)	11%	–	–
CGTAAACTGAAAGACC (sugars k3 d10 k3, PS)	48%	–	–
CGTATTTGTCGAGATC (sugars k3 d10 k3, PS)	50%	–	–
CGTCGCAGGAGCGCGG (sugars k3 d10 k3, PS)	–	1%	–
CGTCTTCCAGGTGGGA (sugars k3 d10 k3, PS)	16%	–	–
CGTGAGAATGTTGGCT (sugars k3 d10 k3, PS)	49%	–	–
CGTGTGCTTGCCAAGC (sugars k3 d10 k3, PS)	–	67% and 66% and 56%	target mRNA inhibition (MM.1R, 0.0625 µM): -3%; target mRNA inhibition (MM.1R, 0.25 µM): 31%; target mRNA inhibition (MM.1R, 4 µM): 81%

Sequence	target mRNA inhibition (SK-MEL-28, 4 µM)	target mRNA inhibition (MM.1R, 1 µM)	further results
CGTGTGCTTGCCAAGC (sugars kkddddddddddkeke, PS)	–	55% and 45%	–
CGTTCTCCCACACCAG (sugars k3 d10 k3, PS)	48%	–	–
CTAAAACTGCGCTCTC (sugars k3 d10 k3, PS)	24%	–	–
CTAAAGGAGTGCAGGA (sugars k3 d10 k3, PS)	6%	–	–
CTAAATCACCCTGGTC (sugars k3 d10 k3, PS)	47%	–	–
CTAATGGTGCTCCTAA (sugars k3 d10 k3, PS)	–	4%	–
CTAATTCCATAGAGCC (sugars k3 d10 k3, PS)	80%	47%	target mRNA inhibition (MM.1R, 0.0625 µM): 2%; target mRNA inhibition (MM.1R, 0.074 µM): -13%; target mRNA inhibition (MM.1R, 0.222 µM): -6%; target mRNA inhibition (MM.1R, 0.25 µM): 8%; target mRNA inhibition (MM.1R, 0.666 µM): 4%; target mRNA inhibition (MM.1R, 2 µM): 20%; target mRNA inhibition (MM.1R, 4 µM): 88%
CTACACAGGCTAATCA (sugars k3 d10 k3, PS)	–	4%	–
CTACACTTCCAAGCAA (sugars k3 d10 k3, PS)	-5%	–	–
CTACTTCAGCTACATT (sugars k3 d10 k3, PS)	47%	–	–
CTAGACAGAGAGTCCG (sugars k3 d10 k3, PS)	–	5%	–
CTAGATTGTAGGACAG (sugars k3 d10 k3, PS)	48%	–	–
CTAGGTTTCAGTTGTA (sugars k3 d10 k3, PS)	54%	–	–
CTAGTCGCGCAAGTCT (sugars k3 d10 k3, PS)	–	-4%	–
CTAGTTTAAGGGTTAC (sugars k3 d10 k3, PS)	27%	–	–
CTATAGTGTTCCAGGA (sugars e1 k2 d9 k2 e2, PS)	–	8%	–
CTATAGTGTTCCAGGA (sugars k2 d9 e3 k2, PS)	–	34%	–
CTATAGTGTTCCAGGA (sugars k3 d10 k3, PS)	66%	–	–
CTATAGTGTTCCAGGA (sugars kddddddddddkekek, PS)	–	34%	–
CTATAGTGTTCCAGGA (sugars kkddddddddddkeke, PS)	–	36%	–
CTATAGTGTTCCAGGA (sugars kkkdddddddddkeke, PS)	–	22%	–
CTATCAGGATCTCAAG (sugars k3 d10 k3, PS)	9%	–	–
CTATGCTGAACCCCAC (sugars k3 d10 k3, PS)	1%	–	–
CTCAATAATCTCCCAG (sugars k3 d10 k3, PS)	53%	–	–
CTCACTATTAAACAGC (sugars k3 d10 k3, PS)	24%	–	–

Sequence	target mRNA inhibition (SK-MEL-28, 4 µM)	target mRNA inhibition (MM.1R, 1 µM)	further results
CTCCACAGCAAGGCCT (sugars k3 d10 k3, PS)	51%	–	–
CTCCACGCGCGGAGGA (sugars k3 d10 k3, PS)	-1%	–	–
CTCCACTACCATATTG (sugars k3 d10 k3, PS)	1%	–	–
CTCCACTGTTAAAGCA (sugars k3 d10 k3, PS)	52%	–	–
CTCCAGCTTCGGTCGA (sugars k3 d10 k3, PS)	–	9%	–
CTCCGGAGTCAGTGCT (sugars k3 d10 k3, PS)	–	1%	–
CTCCTATGCTGAACCC (sugars k3 d10 k3, PS)	–	9%	–
CTCCTTTTTTGGCTCC (sugars k3 d10 k3, PS)	19%	–	–
CTCTAGACAGAGGCCC (sugars k3 d10 k3, PS)	20%	–	–
CTCTAGTCAGTGTCAA (sugars k3 d10 k3, PS)	59%	–	–
CTCTATAGTGTTCCAG (sugars e1 k2 d9 k2 e2, PS)	–	59%	target mRNA inhibition (MM.1R, 0.074 µM): 20%; target mRNA inhibition (MM.1R, 0.222 µM): 37%; target mRNA inhibition (MM.1R, 0.666 µM): 53%; target mRNA inhibition (MM.1R, 2 µM): 75%
CTCTATAGTGTTCCAG (sugars k2 d9 e3 k2, PS)	–	48%	–
CTCTATAGTGTTCCAG (sugars kddddddddddkekek, PS)	–	24%	–
CTCTATAGTGTTCCAG (sugars kkdddddddddekeke, PS)	–	43%	–
CTCTCCAGGTGGCTCA (sugars k3 d10 k3, PS)	13%	–	–
CTCTCCAGGTGGCTCA (sugars k4 d8 k4, PS)	12%	–	–
CTCTTGTGAGGCAAAG (sugars k3 d10 k3, PS)	48%	–	–
CTGAAGACAATGTTGT (sugars k3 d10 k3, PS)	55%	–	–
CTGAATTGTTACTAAA (sugars k3 d10 k3, PS)	21%	–	–
CTGACAAGAACTGCTG (sugars k3 d10 k3, PS)	21%	–	–
CTGACTTTAATATTAG (sugars k3 d10 k3, PS)	56%	–	–
CTGAGAGCCGAGGCCT (sugars k3 d10 k3, PS)	-17%	–	–
CTGAGAGTAAACTTGG (sugars k3 d10 k3, PS)	–	-1%	–
